Structures can show the parent of a compound that is named as a salt.
molecular target: IRAK4 kinase (Homo sapiens (Human), UniProt Q9NWZ3); experiment: IRAK4 Kinase Inhibition Assay (Cisbio HTRF KinEASE-STK S1 kit); assay type: biochemical; conditions: IRAK4 kinase protein 10 nM, ATP 200 μM, STK Substrate 1-biotin 1 μM, 37° C. 2 h, read-out: IC50 (nM), IRAK4 kinase inhibitory activity
Procedure: Test Example 1. IRAK4 Kinase Inhibition Assay
In this assay, Cisbio HTRF KinEASE-STK SI kit (62S 1 PEB) was used, in which assay/detection buffer, STK Substrate 1-biotin, Streptavidin-XL665, STK Antibody-Cryptate were contained.
After adding compound/DMSO to a 384-well plate (PerkinElmer 6008280) using Echo 665, 5 μL of 2-fold reaction concentration of IRAK4 kinase protein (final concentration: 10 nM) dissolved with assay buffer [1 volume of 5× kinase buffer+20 mM magnesium chloride (Sigma) solution+1 mM DTT (Alfa Aesar) solution+4 volumes deionized water] was added, followed by sealing the shallow well plate, shaking and then centrifuging at 1000 rpm for 1 min, and incubating at room temperature for 5 min; then 5 μL of 2-fold reaction concentration of a 1:1 mixture of STK Substrate 1-biotin (final concentration: 1 μM) and ATP (Sigma A1852) (final concentration: 200 μM) formulated with assay buffer was added, followed by sealing the shallow well plate, shaking and then centrifuging at 1000 rpm for 1 min, and incubating at 37° C. for 2 h, and then 10 μL of a 1:1 mixture of Streptavidin-XL665 (final concentration: 62.5 nM) and STK-antibody-cryptate dissolved with detection buffer was added, followed by sealing the shallow well plate, shaking and then centrifuging at 1000 rpm for 1 min, and incubating at room temperature for 1 h, and thereafter reading the value at the wavelength of 620 nm/665 nm using a microplate reader. The data were analyzed using Prism 9.3 software, and the IC50 value of IRAK4 kinase inhibition was fitted using a four parameter Logistic equation.

IRAK4 kinase, sequence (Q9NWZ3 whole entry): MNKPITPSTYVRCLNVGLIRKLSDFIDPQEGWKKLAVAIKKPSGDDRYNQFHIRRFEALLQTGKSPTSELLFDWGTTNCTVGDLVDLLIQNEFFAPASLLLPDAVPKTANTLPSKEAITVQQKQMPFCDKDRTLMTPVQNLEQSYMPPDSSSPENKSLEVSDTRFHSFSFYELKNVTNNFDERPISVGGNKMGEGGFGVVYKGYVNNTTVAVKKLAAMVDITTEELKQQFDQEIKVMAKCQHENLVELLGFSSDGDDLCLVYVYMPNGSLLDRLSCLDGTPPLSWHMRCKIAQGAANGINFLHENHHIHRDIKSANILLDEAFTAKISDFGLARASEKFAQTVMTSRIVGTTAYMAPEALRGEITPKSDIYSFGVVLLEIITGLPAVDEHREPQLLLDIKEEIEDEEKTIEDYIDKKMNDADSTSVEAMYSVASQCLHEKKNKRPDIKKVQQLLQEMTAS

Compound | IC50
FC(F)c1nn(C2CCCCC2)cc1-n1cc(-n2ccc3ccc(N4CCOCC4)nc32)nn1 [Compound 45A] | 1000 to 5000 nM
C[C@@H]1C[C@H](n2cc(-n3cc(-c4cnn5ccc(N6CCOCC6)nc45)nn3)c(C(F)F)n2)CCN1 [Compound 73A] | 100 to 1000 nM
N#Cc1cnc2c(-c3cn(-c4cn(C5CCCCC5)nc4C(F)F)nn3)cnn2c1 [Compound 3A, 3-(1-(1-cyclohexyl-3-(difluoromethyl)-1H-pyrazol-4-yl)-1H-1,2,3-triazol-4-yl) pyrazolo[1,5-a]pyrimidine-6-carbonitrile] | 100 to 1000 nM
O=C(c1cnn2c(-c3cn(-c4cn(C5CCCCC5)nc4C(F)F)nn3)ccc2c1)N1CCNCC1 [Compound 64A, (7-(1-(1-cyclohexyl-3-(difluoromethyl)-1H-pyrazol-4-yl)-1H-1,2,3-triazol-4-yl]pyrrolo[1,2-b]pyridazin-3-yl) (piperazin-1-yl) methanone] | 1000 to 5000 nM
OC[C@H]1CC[C@H](n2cc(-n3cc(-c4cnn5ccc(N6CCCC(O)C6)nc45)nn3)c(C(F)F)n2)CC1 (some centres unmarked) [Compound 100A] | < 100 nM
OC[C@H]1CC[C@H](n2cc(-n3cc(-c4cnn5ccc(N6CCCOCC6)nc45)nn3)c(C(F)F)n2)CC1 [Compound 98A] | < 100 nM
CC1(C)COCCN1c1ccn2ncc(-c3cn(-c4cn([C@H]5CC[C@H](CO)CC5)nc4C(F)F)nn3)c2n1 [Compound 88A, ((1r,4r)-4-(3-(difluoromethyl)-4-(4-(5-(3,3-dimethylmorpholinyl)pyrazolo[1,5-a]pyrimidin-3-yl)-1H-1,2,3-triazol-1-yl)-1H-pyrazol-1-yl)cyclohexyl)methanol] | 100 to 1000 nM
C[C@@H]1C[C@@H](n2cc(-n3cc(-c4cnn5ccc(N6CCOCC6)nc45)nn3)c(C(F)F)n2)CCN1 [Compound 72A] | < 100 nM
OCC1CCC(n2cc(-n3cc(-c4cnn5ccc(N6C[C@H]7C[C@@H]6CO7)nc45)nn3)c(C(F)F)n2)CC1 (stereo partly drawn) [Compound 105A, ((1R,4r)-4-(4-(4-(5-((1R,4r)-2-oxa-5-azabicyclo[2.2.1]heptan-5-yl)pyrazolo[1,5-a]pyrimidin-3-yl)-1H-1,2,3-triazol-1-yl)-3-(difluoromethyl)-1H-pyrazol-1-yl)cyclohexyl)methanol] | 100 to 1000 nM
CN1CCN(c2ccn3ncc(-c4cn(-c5cn([C@H]6CC[C@H](CO)CC6)nc5C(F)F)nn4)c3n2)CC1 [Compound 95A, (1R,4R)-4-(3-difluoromethyl)-4-(4-(5-(4-methylpiperazin-1-yl)pyrazolo[1,5-a]pyrimidin-3-yl)-1H-1,2,3-triazol-1-yl)-1H-pyrazol-1-yl)cyclohexylmethanol formate] | 100 to 1000 nM
NC1CN(c2ccn3ncc(-c4cn(-c5cn([C@H]6CC[C@H](CO)CC6)nc5C(F)F)nn4)c3n2)CC(F)(F)C1 (some centres unmarked) [Compound 108A] | < 100 nM
